What follows are compounds tested against T1, MAGL (Homo sapiens, UniProt Q99685) (assay: 2-AG assay (MAGL inhibitory activity, hydrolysis of 2-arachidonoylglycerol followed by mass spectrometry)). Conditions: 50 pM MAGL, 8 μM 2-arachidonoylglycerol, 15 min preincubation, 30 min incubation at RT.
T1 sequence (Q99685 1-303): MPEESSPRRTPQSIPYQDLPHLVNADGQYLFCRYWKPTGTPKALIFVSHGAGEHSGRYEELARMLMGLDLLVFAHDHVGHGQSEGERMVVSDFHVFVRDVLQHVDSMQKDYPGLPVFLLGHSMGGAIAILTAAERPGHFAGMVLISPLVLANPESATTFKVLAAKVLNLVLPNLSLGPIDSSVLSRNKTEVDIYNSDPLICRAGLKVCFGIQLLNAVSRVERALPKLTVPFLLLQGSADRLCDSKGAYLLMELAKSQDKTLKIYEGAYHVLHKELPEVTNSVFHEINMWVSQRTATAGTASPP
Assay type: biochemical
Procedure: Compounds were profiled for MAGL inhibitory activity by determining the enzymatic activity by following the hydrolysis of the natural substrate 2-arachidonoylglycerol (2-AG) resulting in arachidonic acid, which can be followed by mass spectrometry. This assay is hereinafter abbreviated “2-AG assay”.
The 2-AG assay was carried out in 384 well assay plates (PP, Greiner Cat #784201) in a total volume of 20 μL. Compound dilutions were made in 100% DMSO (VWR Chemicals 23500.297) in a polypropylene plate in 3-fold dilution steps to give a final concentration range in the assay from 12.5 μM to 0.8 pM. 0.25 μL compound dilutions (100% DMSO) were added to 9 μL MAGL in assay buffer (50 mM TRIS (GIBCO, 15567-027), 1 mM EDTA (Fluka, 03690-100 mL), 0.01% (v/v) Tween. After shaking, the plate was incubated for 15 min at RT. To start the reaction, 10 μL 2-arachidonoylglycerol in assay buffer was added. The final concentrations in the assay was 50 pM MAGL and 8 μM 2-arachidonoylglyerol. After shaking and 30 min incubation at RT, the reaction was quenched by the addition of […] of ACN containing 4 μM of d8-arachidonic acid. The amount of arachidonic acid was traced by an online SPE system (Agilent Rapidfire) coupled to a triple quadrupole mass spectrometer (Agilent 6460). A C18 SPE cartridge (G9205A) was used in an ACN/water liquid setup. The mass spectrometer was operated in negative electrospray mode following the mass transitions 303.1→259.1 for arachidonic acid and 311.1→267.0 for d8-arachidonic acid. The activity of the compounds was calculated based on the ratio of intensities [arachidonic acid/d8-arachidonic acid].

IC50 [nM] | Structure (SMILES)
4460 | Cn1c(Cl)c(C(=O)N2CCN3C[C@@](O)(c4ccc(Cl)cc4)CC[C@@H]3C2)ccc1=O [Example 12, 5-[(7S,9aR)-7-(4-chlorophenyl)-7-hydroxy-3,4,6,8,9,9a-hexahydro-1H-pyrido[1,2-a]pyrazine-2-carbonyl]-6-chloro-l-methylpyridin-2-one]
1190 | O=C(c1cccc(N2CCOC2=O)c1Cl)N1CCN2C[C@@](O)(c3ccc(Cl)cc3)CC[C@@H]2C1 [Example 13, 3-[3-[(7S,9aR)-7-(4-chlorophenyl)-7-hydroxy-3,4,6,8,9,9a-hexahydro-1H-pyrido[1,2-a]pyrazine-2-carbonyl]-2-chlorophenyl]-1,3-oxazolidin-2-one]
2160 | O=C(c1cccc(N2CCNC2=O)c1Cl)N1CCN2C[C@@](O)(c3ccc(Cl)cc3)CC[C@@H]2C1 [Example 14, 1-[3-[(7S,9aR)-7-(4-chlorophenyl)-7-hydroxy-3,4,6,8,9,9a-hexahydro-1H-pyrido[1,2-a]pyrazine-2-carbonyl]-2-chlorophenyl]imidazolidin-2-one]
168 | Cc1c[nH]nc1-c1cccc(C(=O)N2CCN3C[C@@](O)(c4ccc(Cl)cc4)CC[C@@H]3C2)c1F [Example 15, [(7S,9aR)-7-(4-chlorophenyl)-7-hydroxy-3,4,6,8,9,9a-hexahydro-1H-pyrido[1,2-a]pyrazin-2-yl]-[2-fluoro-3-(4-methl1-1H-pyrazol-3-yl)phenyl]methanone]
10.3 | Cc1cn[nH]c1-c1cccc(C(=O)N2CCN3C[C@@](O)(c4ccc(Cl)cc4)CC[C@@H]3C2)c1Cl [Example 16, [(7S,9aR)-7-(4-chlorophenyl)-7-hydroxy-3,4,6,8,9,9a-hexahydro-1H-pyrido[1,2-a]pyrazin-2-yl]-[2-chloro-3-(4-methyl-1H-pyrazol-5-yl)phenyl]methanone]
255 | Cc1c[nH]nc1-c1cccc(C(=O)N2CCN3C[C@@](O)(c4ccc(Cl)cc4)CC[C@@H]3C2)c1 [Example 17]
97.2 | COc1cccc(C(=O)N2CCN3C[C@@](O)(c4ccc(C(F)(F)F)cn4)CC[C@@H]3C2)c1Cl [Example 18]
150 | COc1cccc(C(=O)N2CCN3C[C@](O)(c4ccc(C(F)(F)F)cn4)CC[C@H]3C2)c1Cl [Example 19, [(7S,9aS)-7-hydroxy-7-[5-(trifluoromethyl)pyridin-2-yl]-3,4,6,8,9,9a-hexahydro-1H-pyrido[1,2-a]pyrazin-2-yl]-(2-chloro-3-methoxyphenyl)methanone]
11.5 | O=C(c1cccc(-c2ccn[nH]2)c1Cl)N1CCN2C[C@@](O)(c3ccc(C(F)(F)F)cn3)CC[C@@H]2C1 [Example 20, [(7R,9aR)-7-hydroxy-7-[5-(trifluoromethyl)pyridin-2-yl]-3,4,6,8,9,9a-hexahydro-1H-pyrido[1,2-a]pyrazin-2-yl]-[2-chloro-3-(1H-pyrazol-5-yl)phenyl]methanone]
351 | O=C(c1cccc(N2CCOCC2)c1F)N1CCN2C[C@@](O)(c3ccc(Cl)cc3)CC[C@@H]2C1 [Example 21, [(7S,9aR)-7-(4-chlorophenyl)-7-hydroxy-3,4,6,8,9,9a-hexahydro-1H-pyrido[1,2-a]pyrazin-2-yl]-(2-fluoro-3-morpholino-phenyl)methanone]
838 | CC(C)(C)OC(=O)N1CCN(c2cccc(C(=O)N3CCN4C[C@@](O)(c5ccc(Cl)cc5)CC[C@@H]4C3)c2F)CC1 [Example 22, tert-butyl 4-[3-[(7S,9aR)-7-(4-chlorophenyl)-7-hydroxy-3,4,6,8,9,9a-hexahydro-1H-pyrido[1,2-a]pyrazine-2-carbonyl]-2-fluorophenyl]piperazine-1-carboxylate]
656 | O=C(c1cccc(N2CCNCC2)c1F)N1CCN2C[C@@](O)(c3ccc(Cl)cc3)CC[C@@H]2C1 [Example 23, [(7S,9aR)-7-(4-chlorophenyl)-7-hydroxy-3,4,6,8,9,9a-hexahydro-1H-pyrido[1,2-a]pyrazin-2-yl]-(2-fluoro-3-piperazin-1-ylphenyl)methanone]
10.5 | O=C(c1cccc(/C=C\c2ccccc2)c1Br)N1CCN2C[C@@H](c3ccc(Cl)cc3)CC[C@@H]2C1 [Example 27, [(7R,9aR)-7-(4-chlorophenyl)-1,3,4,6,7,8,9,9a-octahydropyrido[1,2-a]pyrazin-2-yl]-[2-bromo-3-[(Z)-2-phenylethenyl]phenyl]methanone]
169 | O=C(c1cccc(/C=C/c2ccccc2)c1Br)N1CCN2C[C@@H](c3ccc(Cl)cc3)CC[C@@H]2C1 [Example 28, [(7R,9aR)-7-(4-chlorophenyl)-1,3,4,6,7,8,9,9a-octahydropyrido[1,2-a]pyrazin-2-yl]-[2-bromo-3-[(E)-2-phenylethenyl]phenyl]methanone]
7.62 | CC(C)(C)OC(=O)Nc1ccc(/C=C/c2cccc(C(=O)N3CCN4C[C@@H](c5ccc(Cl)cc5)CC[C@@H]4C3)c2Br)cc1 [Example 29]
18.5 | C=CC(=O)Nc1ccc(/C=C/c2cccc(C(=O)N3CCN4C[C@@H](c5ccc(Cl)cc5)CC[C@@H]4C3)c2Br)cc1 [Example 30, N-[4-[(E)-2-[3-[(7R,9aR)-7-(4-chlorophenyl)-1,3,4,6,7,8,9,9a-octahydropyrido[1,2-a]pyrazine-2-carbonyl]-2-bromophenyl]ethenyl]phenyl]prop-2-enamide]
72.7 | O=C(c1cccc(N2CC(O)C2)c1Cl)N1CCN2C[C@@](O)(c3ccc(C(F)(F)F)cn3)CC[C@@H]2C1 [Example 32, [(7R,9aR)-7-hydroxy-7-[5-(trifluoromethyl)pyridin-2-yl]-3,4,6,8,9,9a-hexahydro-1H-pyrido[1,2-a]pyrazin-2-yl]-[2-chloro-3-(3-hydroxyazetidin-1-yl)phenyl]methanone]
159 | O=C(c1cccc(O)c1Cl)N1CCN2C[C@@](O)(c3ccc(Cl)cc3)CC[C@@H]2C1 [Example 33, [(7S,9aR)-7-(4-chlorophenyl)-7-hydroxy-3,4,6,8,9,9a-hexahydro-1H-pyrido[1,2-a]pyrazin-2-yl]-(2-chloro-3-hydroxyphenyl)methanone]
145 | O=C1CN(c2cccc(C(=O)N3CCN4C[C@@](O)(c5ccc(Cl)cc5)CC[C@@H]4C3)c2F)CCN1 [Example 34, 4-(3-((7S,9aR)-7-(4-chlorophenyl)-7-hydroxyoctahydro-2H-pyrido[1,2-a]pyrazine-2-carbonyl)-2-fluorophenyl)piperazin-2-one]
86 | O=C1CN(c2cccc(C(=O)N3CCN4C[C@@](O)(c5ccc(Cl)cc5)CC[C@@H]4C3)c2Cl)CCN1 [Example 35, 4-[3-[(7S,9aR)-7-(4-chlorophenyl)-7-hydroxy-3,4,6,8,9,9a-hexahydro-1H-pyrido[1,2-a]pyrazine-2-carbonyl]-2-chlorophenyl]piperazin-2-one]
76 | O=C(c1cccc(N2CCC23COC3)c1Cl)N1CCN2C[C@@](O)(c3ccc(Cl)cc3)CC[C@@H]2C1 [Example 36, [(7S,9aR)-7-(4-chlorophenyl)-7-hydroxy-3,4,6,8,9,9a-hexahydro-1H-pyrido[1,2-a]pyrazin-2-yl]-[2-chloro-3-(6-oxa-1-azaspiro[3.3]heptan-1-yl)phenyl]methanone]
38.5 | O=C(c1cccc(N2CC(O)C2)c1F)N1CCN2C[C@@](O)(c3ccc(F)c(Cl)c3)CC[C@@H]2C1 [Example 39, [(7S,9aR)-7-(3-chloro-4-fluorophenyl)-7-hydroxy-3,4,6,8,9,9a-hexahydro-1H-pyrido[1,2-a]pyrazin-2-yl]-[2-fluoro-3-(3-hydroxyazetidin-1-yl)phenyl]methanone]
